Data on 1 compound can be found in PMC4119689, “Investigation of the Interaction between Patulin and Human Serum Albumin by a Spectroscopic Method, Atomic Force Microscopy, and Molecular Modeling” (BioMed Research International, 2014).

The test concerns the target T1, human serum albumin (HSA) (Homo sapiens, UniProt P02768).
T1 construct: gene ALB
The test can be described thus: Trp-214 fluorescence quenching titration (association constant KA at […] K), supported by time-resolved fluorescence, UV-Vis, CD and AFM; quenching described as dynamic. The class given is binding. To be noted: read-out: Equation (3) / K A/M^-1 (converted).

T1 sequence (P02768 25-609): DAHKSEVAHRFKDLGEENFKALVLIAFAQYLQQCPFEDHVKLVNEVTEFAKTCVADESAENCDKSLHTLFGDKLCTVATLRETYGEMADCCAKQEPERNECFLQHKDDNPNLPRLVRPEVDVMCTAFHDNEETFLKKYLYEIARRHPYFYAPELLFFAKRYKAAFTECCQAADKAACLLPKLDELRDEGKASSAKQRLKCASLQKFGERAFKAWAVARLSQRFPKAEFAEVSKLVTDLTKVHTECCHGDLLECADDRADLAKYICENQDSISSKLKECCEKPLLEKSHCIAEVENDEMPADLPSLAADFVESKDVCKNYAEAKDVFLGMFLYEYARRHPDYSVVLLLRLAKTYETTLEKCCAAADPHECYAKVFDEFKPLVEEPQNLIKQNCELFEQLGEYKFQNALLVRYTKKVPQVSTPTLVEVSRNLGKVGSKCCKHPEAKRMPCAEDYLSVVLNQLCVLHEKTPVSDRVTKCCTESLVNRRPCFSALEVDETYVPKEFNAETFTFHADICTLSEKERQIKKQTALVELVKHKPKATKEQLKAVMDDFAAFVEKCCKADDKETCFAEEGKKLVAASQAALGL

For `O=C1C=C2C(=CCOC2O)O1` (stereo not shown) [patulin], the Kd is 38.5 µM.
